Data taken from patent US20100120717A1, “KINASE INHIBITORS” (priority 2006, published 2010).

Each compound was assayed against Aurora B/INCENP (Homo sapiens, UniProt Q96GD4) (assay: Determination of inhibition of AIK: Aurora B/INCENP Direct Fluorescence Polarization (IMAP) assay). Conditions: 10 uM ATP, 0.8 nM Aurora B/INCENP, 45 min at room temperature; read-out: IC50 of Exemplified Compounds Against AIK B.
Aurora B/INCENP, sequence (Q96GD4 whole entry): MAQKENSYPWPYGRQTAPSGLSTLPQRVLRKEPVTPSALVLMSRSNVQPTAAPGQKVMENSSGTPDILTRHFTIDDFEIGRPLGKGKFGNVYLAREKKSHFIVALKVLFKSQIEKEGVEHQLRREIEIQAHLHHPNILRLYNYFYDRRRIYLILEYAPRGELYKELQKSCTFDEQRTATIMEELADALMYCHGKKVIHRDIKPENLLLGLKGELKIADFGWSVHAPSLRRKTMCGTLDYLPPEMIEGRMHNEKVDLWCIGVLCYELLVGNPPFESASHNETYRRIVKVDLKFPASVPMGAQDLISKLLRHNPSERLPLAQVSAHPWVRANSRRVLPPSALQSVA
Aurora B/INCENP, sequence (Q9NQS7 whole entry partner): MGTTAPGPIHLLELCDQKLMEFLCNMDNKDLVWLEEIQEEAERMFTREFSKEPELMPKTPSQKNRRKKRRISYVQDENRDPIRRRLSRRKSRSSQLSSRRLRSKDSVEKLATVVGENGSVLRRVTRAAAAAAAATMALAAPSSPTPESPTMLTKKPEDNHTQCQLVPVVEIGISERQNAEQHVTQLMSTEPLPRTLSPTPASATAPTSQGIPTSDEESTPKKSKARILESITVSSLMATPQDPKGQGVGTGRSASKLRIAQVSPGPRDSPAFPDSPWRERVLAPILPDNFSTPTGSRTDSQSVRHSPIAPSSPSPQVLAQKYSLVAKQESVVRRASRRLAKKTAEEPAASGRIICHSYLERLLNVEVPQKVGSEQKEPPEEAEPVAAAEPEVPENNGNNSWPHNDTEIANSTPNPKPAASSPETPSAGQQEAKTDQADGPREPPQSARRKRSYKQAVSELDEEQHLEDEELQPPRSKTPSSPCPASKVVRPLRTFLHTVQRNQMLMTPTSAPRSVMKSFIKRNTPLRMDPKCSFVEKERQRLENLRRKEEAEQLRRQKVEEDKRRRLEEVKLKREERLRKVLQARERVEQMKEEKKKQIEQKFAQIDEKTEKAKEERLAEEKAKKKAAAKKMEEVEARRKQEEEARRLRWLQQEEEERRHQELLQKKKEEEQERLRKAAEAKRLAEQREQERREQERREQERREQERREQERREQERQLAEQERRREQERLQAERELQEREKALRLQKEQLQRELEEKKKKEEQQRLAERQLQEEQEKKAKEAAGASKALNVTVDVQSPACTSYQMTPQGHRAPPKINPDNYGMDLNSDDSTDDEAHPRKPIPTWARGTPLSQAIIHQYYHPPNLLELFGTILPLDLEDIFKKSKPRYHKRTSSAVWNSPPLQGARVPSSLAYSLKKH
Type: biochemical
Method: Detection of the reaction product is performed by addition of Progressive IMAP binding reagent (Molecular Devices). Reaction product may be determined quantitatively by FP using an Analyst HT plate reader (Molecular Devices) with an excitation wavelength at 485 nm and emission at 530 nm and using a Fluorescein 505 dichroic mirror.
The assay reaction may be initiated as follows: 2 ul of (3×) 300 nM Fl-Peptide/30 uM ATP was added to each well of the plate, followed by the addition of 2 ul of (3×) inhibitor (2 fold serial dilutions for 11 data points for each inhibitor) containing 15% DMSO. Two microliters of (3×) 2.4 nM AuroraB/INCENP solution may be added to initiate the reaction (final enzyme concentration was 0.8 nM for Aurora B/INCENP). The reaction mixture may then be incubated at room temperature for 45 min, and quenched and developed by addition of 20 ul of 1 to 400 diluted Progressive IMAP binding reagent in 1× proprietary Progressive IMAP binding buffer A. Fluorescence polarization readings of the resulting reaction mixtures may be measured after a 60-minute incubation at room temperature.
IC50 values may be calculated by non-linear curve fitting of the compound concentrations and fluorescent polarization values to the standard IC50 equation.
For c1ccc(-c2cccc3[nH]c4ncccc4c23)cc1 [Compound 5, 5-phenyl-9H-pyrido[2,3-b]indole], the IC50 was at least 11 nM. With CCS(=O)(=O)c1cccc(-c2ccc(C)c3[nH]c4ncc(C)cc4c23)c1 [Compound 18, 5-(3-(ethylsulfonyl)phenyl)-3,8-dimethyl-9H-pyrido[2,3-b]indole] the IC50 was 6 to 10 nM. In the case of CCS(=O)(=O)c1cccc(-c2cnc(NCCCN(C)C)c3[nH]c4ncc(C)cc4c23)c1 [Compound 41, N′-[5-(3-Ethanesulfonyl-phenyl)-3-methyl-9H-dipyrido[2,3-b;4′,3′-d]pyrrol-8-yl]-N,N-dimethyl-propane-1,3-diamine], the IC50 is reported as 6 to 10 nM. For CCOc1ncc(-c2cccc(S(=O)(=O)CC)c2)c2c1[nH]c1ncc(C)cc12 [Compound 51, 5-(3-Ethanesulfonyl-phenyl)-8-ethoxy-3-methyl-9H-dipyrido[2,3-b;4′,3′-d]pyrrole], the IC50 was 6 to 10 nM. With CCS(=O)(=O)c1cccc(-c2cnc(OCCCN(C)C)c3[nH]c4ncc(C)cc4c23)c1 [Compound 52, {3-[5-(3-Ethanesulfonyl-phenyl)-3-methyl-9H-dipyrido[2,3-b;4′,3′-d]pyrrol-8-yloxy]-propyl}-dimethyl-amine] the IC50 was 6 to 10 nM. CCS(=O)(=O)c1cccc(-c2cnc(OCC3CCN(C)CC3)c3[nH]c4ncc(C)cc4c23)c1 [Compound 54, 5-(3-Ethanesulfonyl-phenyl)-3-methyl-8-(1-methyl-piperidin-4-ylmethoxy)-9H-dipyrido[2,3-b;4′,3′-d]pyrrole] was tested, and the IC50 was 6 to 10 nM. For CCS(=O)(=O)c1cccc(-c2cc(C(=O)NC3CCN(C)CC3)c(C)c3[nH]c4ncc(C)cc4c23)c1 [Compound 88, 5-(3-(ethylsulfonyl)phenyl)-3,8-dimethyl-N-(1-methylpiperidin-4-yl)-9H-pyrido[2,3-b]indole-7-carboxamide], the IC50 was 6 to 10 nM. In the case of CCS(=O)(=O)c1cccc(-c2cc(C(=O)NCCOC)c(C)c3[nH]c4ncc(C)cc4c23)c1 [Compound 90, N-(2-(methoxy)ethyl)-5-(3-(ethylsulfonyl)phenyl)-3,8-dimethyl-9H-pyrido[2,3-b]indole-7-carboxamide], the IC50 is reported as 6 to 10 nM. CCS(=O)(=O)c1cccc(-c2cc(C(=O)NCCCN3CCN(C)CC3)c(C)c3[nH]c4ncc(C)cc4c23)c1 [Compound 95, 5-(3-(ethylsulfonyl)phenyl)-3,8-dimethyl-N-(3-(4-methylpiperazin-1-yl)propyl)-9H-pyrido[2,3-b]indole-7-carboxamide] showed an IC50 of at least 11 nM. With CCN1CCC(NC(=O)c2cc(-c3cccc(S(=O)(=O)CC)c3)c3c([nH]c4ncc(C)cc43)c2C)CC1 [Compound 105, N-(1-ethylpiperidin-4-yl)-5-(3-(ethylsulfonyl)phenyl)-3,8-dimethyl-9H-pyrido[2,3-b]indole-7-carboxamide] the IC50 was at least 11 nM. With Cc1cnc2[nH]c3c(C)c(C(=O)NCCN(C)C)cc(-c4cccc(NC(=O)C5CC5)c4)c3c2c1 [Compound 112, 5-(3-(cyclopropanecarboxamido)phenyl)-N-(2-(dimethylamino)ethyl)-3,8-dimethyl-9H-pyrido[2,3-b]indole-7-carboxamide] the IC50 was at least 11 nM. CCS(=O)(=O)c1cccc(-c2cc(C(=O)NCCN(C)C)c(C)c3[nH]c4ncc(C)cc4c23)c1 [Compound 113] was tested, and the IC50 was 6 to 10 nM. Compound CCS(=O)(=O)c1cccc(-c2cc(C(=O)NCC3CCN(C)CC3)c(C)c3[nH]c4ncc(C)cc4c23)c1 [Compound 114, 5-(3-(ethylsulfonyl)phenyl)-3,8-dimethyl-N-((1-methylpiperidin-4-yl)methyl)-9H-pyrido[2,3-b]indole-7-carboxamide] has an IC50 of at least 11 nM. CCS(=O)(=O)c1cccc(-c2cc(C(=O)N[C@H]3CCCN(C)C3)c(C)c3[nH]c4ncc(C)cc4c23)c1 [Compound 117, (S)-5-(3-(ethylsulfonyl)phenyl)-3,8-dimethyl-N-(1-methylpiperidin-3-yl)-9H-pyrido[2,3-b]indole-7-carboxamide] showed an IC50 of at least 11 nM. Work on Cc1cnc2[nH]c3c(C)c(C(=O)NC4CCN(C)CC4)cc(-c4cccc(NC(=O)C5CC5)c4)c3c2c1 [Compound 120, 5-(3-(cyclopropanecarboxamido)phenyl)-3,8-dimethyl-N-(1-methyl-piperidin-4-yl)-9H-pyrido[2,3-b]indole-7-carboxamide] yielded an IC50 of 6 to 10 nM. In the case of CCS(=O)(=O)c1cccc(-c2cc(C(=O)NCCN(C)C)cc3[nH]c4ncc(C)cc4c23)c1 [Compound 142, 5-(3-Ethanesulfonyl-phenyl)-3-methyl-9H-pyrido[2,3-b]indole-7-carboxylic acid (2-dimethylamino-ethyl)-amide], the IC50 is reported as 6 to 10 nM. Compound CCNS(=O)(=O)c1cccc(-c2cc(C(=O)NC3CCN(C)CC3)c(C)c3[nH]c4ncc(C)cc4c23)c1 [Compound 153] has an IC50 of at least 11 nM. With Cc1cnc2[nH]c3c(C)c(C(=O)NC4CCN(C)CC4)cc(-c4cccc(S(=O)(=O)C5CC5)c4)c3c2c1 [Compound 154, 5-(3-(cyclopropylsulfonyl)phenyl)-3,8-dimethyl-N-(1-methylpiperidin-4-yl)-9H-pyrido[2,3-b]indole-7-carboxamide] the IC50 was 6 to 10 nM. Work on COc1ccc(-c2cccc(NC(=O)C3CC3)c2)c2c1[nH]c1ncc(C)cc12 [Compound 163, N-(3-(8-methoxy-3-methyl-9H-pyrido[2,3-b]indol-5-yl)phenyl)cyclopropanecarboxamide] yielded an IC50 of at least 11 nM. CCOc1ccc(-c2cccc(S(=O)(=O)CC)c2)c2c1[nH]c1ncc(C)cc12 [Compound 171, 8-ethoxy-5-(3-(ethylsulfonyl)phenyl)-3-methyl-9H-pyrido[2,3-b]indole] was tested, and the IC50 was 6 to 10 nM. CCS(=O)(=O)c1cccc(-c2ccc(OCC(F)(F)F)c3[nH]c4ncc(C)cc4c23)c1 [Compound 173, 5-(3-(ethylsulfonyl)phenyl)-3-methyl-8-(2,2,2-trifluoroethoxy)-9H-pyrido[2,3-b]indole] showed an IC50 of at least 11 nM. Work on CCS(=O)(=O)c1cccc(-c2ccc(OCC3CCN(C)CC3)c3[nH]c4ncc(C)cc4c23)c1 [Compound 177, 5-(3-(ethylsulfonyl)phenyl)-3-methyl-8-((1-methylpiperidin-4-yl)methoxy)-9H-pyrido[2,3-b]indole] yielded an IC50 of 6 to 10 nM. For Cc1cnc2[nH]c3c(OCC4CCN(C)CC4)ccc(-c4cccc(C(=O)NC5CC5)c4)c3c2c1 [Compound 178, N-cyclopropyl-3-(3-methyl-8-((1-methylpiperidin-4-yl)methoxy)-9H-pyrido[2,3-b]indol-5-yl)benzamide], the IC50 was at least 11 nM. Cc1cnc2[nH]c3c(OCC4CCN(C)CC4)ccc(-c4cccc(S(=O)(=O)C5CC5)c4)c3c2c1 [Compound 179, 5-(3-(cyclopropylsulfonyl)phenyl)-3-methyl-8-((1-methylpiperidin-4-yl)methoxy)-9H-pyrido[2,3-b]indole] was tested, and the IC50 was 6 to 10 nM. Work on Cc1cnc2[nH]c3c(OCC4CCN(C)CC4)ccc(-c4cccc(NC(=O)C5CC5)c4)c3c2c1 [Compound 182, N-(3-(3-methyl-8-((1-methylpiperidin-4-yl)methoxy)-9H-pyrido[2,3-b]indol-5-yl)phenyl)cyclopropanecarboxamide] yielded an IC50 of 6 to 10 nM. Cc1cnc2[nH]c3c(OCCCN(C)C)ccc(-c4cccc(NC(=O)C5CC5)c4)c3c2c1 [Compound 195, N-(3-(8-(3-(dimethylamino)propoxy)-3-methyl-9H-pyrido[2,3-b]indol-5-yl)phenyl)cyclopropanecarboxamide] was tested, and the IC50 was at least 11 nM. CCS(=O)(=O)c1cccc(-c2ccc(OC[C@H](O)CN(C)C)c3[nH]c4ncc(C)cc4c23)c1 [Compound 232, (R)-1-(dimethylamino)-3-(5-(3-(ethylsulfonyl)phenyl)-3-methyl-9H-pyrido[2,3-b]indol-8-yloxy)propan-2-ol] was tested, and the IC50 was 6 to 10 nM. In the case of CCN(CCCOc1ccc(-c2cccc(S(=O)(=O)C3CC3)c2)c2c1[nH]c1ncc(C)cc12)CCOP(=O)(OC(C)(C)C)OC(C)(C)C [Compound 271, di-tert-butyl-2-((3-(5-(3-(cyclopropylsulfonyl)phenyl)-3-methyl-9H-pyrido[2,3-b]indol-8-yloxy)propyl)(ethyl)amino)ethyl phosphate], the IC50 is reported as at most 5 nM. With CCN(CCCOc1ccc(-c2cccc(S(=O)(=O)C3CC3)c2)c2c1[nH]c1ncc(C)cc12)CCOP(=O)(O)O [Compound 272, 2-((3-(5-(3-(cyclopropylsulfonyl)phenyl)-3-methyl-9H-pyrido[2,3-b]indol-8-yloxy)propyl)(ethyl)amino)ethyl dihydrogen phosphate] the IC50 was 6 to 10 nM. Work on CN1CCC(COc2ccc(-c3cccc(C(=O)NC4CC4)c3)c3c2[nH]c2ncc(Cl)cc23)CC1 [Compound 285, 3-(3-chloro-8-((1-methylpiperidin-4-yl)methoxy)-9H-pyrido[2,3-b]indol-5-yl)-N-cyclopropylbenzamide] yielded an IC50 of 6 to 10 nM. With CN1CCC(COc2ccc(-c3cccc(S(=O)(=O)C4CC4)c3)c3c2[nH]c2ncc(Cl)cc23)CC1 [Compound 286, 3-chloro-5-(3-(cyclopropylsulfonyl)phenyl)-8-((1-methylpiperidin-4-yl)methoxy)-9H-pyrido[2,3-b]indole] the IC50 was 6 to 10 nM. CCNS(=O)(=O)c1cccc(-c2ccc(OCCCN(C)C)c3[nH]c4ncc(C)cc4c23)c1 [Compound 295, 3-(8-(3-(dimethylamino)propoxy)-3-methyl-9H-pyrido[2,3-b]indol-5-yl)-N-ethylbenzenesulfonamide] showed an IC50 of 6 to 10 nM.
